Test results reported in patent publication US4450269A, “Mono-5-substituted-3-chloro-4H-1,2,6-thiadiazin-4-one antifungal agents” (FMC Corporation, priority 1980, dated 1984).
Where a name gives a salt, the structure may show the parent alone.

Test system: Alternaria solani
Test: Mycelial growth test
Type: cell-based
Conditions: AS; for inhibition at 5 ppm / inhibition at 10 ppm / inhibition at 20 ppm / inhibition at 40 ppm: Alternaria solani, 72 h, read-out: Percent Fungus Growth Inhibition; for Percent Fungus Growth Inhibition: 72 hours

Row | Compound | inhibition at 5 ppm (5 ppm) | inhibition at 10 ppm (10 ppm) | inhibition at 20 ppm (20 ppm) | inhibition at 40 ppm (40 ppm) | further results
1 | O=c1c(Cl)nsnc1Oc1ccc([N+](=O)[O-])cc1 [Compound 9, 3-chloro-5-(4-nitrophenoxy)-4H--1,2,6-thiadiazin-4-one] | 31% | 63% | 100% | 100% | 
2 | Cc1cc(Cl)ccc1Oc1nsnc(Cl)c1=O [Compound 55, 3-chloro-5-(4-chloro-2-methylphenoxy)-4H--1,2,6-thiadiazin-4-one] | 100% | 100% | 100% | 100% | 
3 | O=c1c(Cl)nsnc1Oc1cccc2ccccc12 [Compound 32, 3-chloro-5(1-naphthoxy)-4H-1,2,6-thiadiazin-4-one] | 58% | 58% | 88% | 92% | 
4 | Cc1cc(C)cc(Oc2nsnc(Cl)c2=O)c1 [Compound 25, 3-chloro-5-(3,5-dimethylphenoxy)-4H--1,2,6-thiadiazin-4-one] | 69% | 75% | 81% | 88% | 
5 | O=c1c(Cl)nsnc1Oc1cccc(Cl)c1 [Compound 13, 3-chloro-5-(3-chlorophenoxy)-4H--1,2,6-thiadiazin-4-one] | 45% | 59% | 86% | 100% | 
6 | O=C(O)Cc1ccccc1Oc1nsnc(Cl)c1=O [Compound 45, 3-(2-carboxymethylphenoxy)-5-chloro-4H--1,2,6-thiadiazin-4-one] | 4% | 0% | 25% | 54% | 
7 | CSc1ccc(Oc2nsnc(Cl)c2=O)cc1 [Compound 39, 3-chloro-5-[(4-methylthio)phenoxy]-4H-1,2,6,-thiadiazin-4-one] | 42% | 33% | 42% | 54% | 
8 | O=c1c(Cl)nsnc1Oc1ccc(F)cc1 [Compound 11, 3-chloro-5-(4-fluorophenoxy)-4H--1,2,6-thiadiazin-4-one] | 63% | 83% | 100% | 100% | 
9 | Cc1cc(Oc2nsnc(Cl)c2=O)ccc1Cl [Compound 54, 3-chloro-5-(4-chloro-3-methylphenoxy)-4H--1,2,6-thiadiazin-4-one] | 70% | 100% | 100% | 100% | 
10 | 3-chloro-5-(bromophenoxy)-4H-1,2,6-thiadiazin-4-one [Compound 33] |  |  |  |  | Percent Fungus Growth Inhibition (5 ppm): 100%; Percent Fungus Growth Inhibition (10 ppm): 100%; Percent Fungus Growth Inhibition (20 ppm): 100%; Percent Fungus Growth Inhibition (40 ppm): 100%
11 | COc1cc(Oc2nsnc(Cl)c2=O)cc(OC)c1C(C)=O [Compound 61, 3-[(4-acetyl-3,5-dimethoxy)-phenoxy]-5-chloro-4H--1,2,6-thiadiazin-4-one] | 33% | 29% | 25% | 42% | 
12 | Cc1ccccc1Oc1nsnc(Cl)c1=O [Compound 22, 3-chloro-5-(2-methylphenoxy)-4H--1,2,6-thiadiazin-4-one] | 63% | 88% | 100% | 100% | 
13 | O=c1c(Cl)nsnc1Oc1cc(Cl)cc(Cl)c1 [Compound 20, 3-chloro-5-(3,5-dichlorophenoxy)-4H--1,2,6-thiadiazin-4-one] | 59% | 59% | 59% | 83% | 
14 | O=c1c(Cl)nsnc1Oc1ccccc1Cl [Compound 14, 3-chloro-5-(2-chlorophenoxy)-4H--1,2,6-thiadiazin-4-one] | 86% | 79% | 100% | 100% | 
15 | Nc1ccc(Oc2nsnc(Cl)c2=O)cc1 [Compound 27, 5-(4-aminophenoxy)-3-chloro-4H--1,2,6-thiadiazine-4-one hydrochloride] |  |  |  |  | Percent Fungus Growth Inhibition (5 ppm, hydrochloride): 47%; Percent Fungus Growth Inhibition (10 ppm, hydrochloride): 73%; Percent Fungus Growth Inhibition (20 ppm, hydrochloride): 80%; Percent Fungus Growth Inhibition (40 ppm, hydrochloride): 87%
16 | O=c1c(Cl)nsnc1Oc1ccccc1 [Compound 2, 3-chloro-5-phenoxy-4H--1,2,6-thiadiazin-4-one] | 75% | 100% | 100% | 100% | 
17 | Cc1cc(Cl)c(Oc2nsnc(Cl)c2=O)cc1C [Compound 58, 3-chloro-5-[(2-chloro-4,5-dimethyl)phenoxy]-4H--1,2,6-thiadiazin-4-one] | 48% | 48% | 43% | 43% | 
18 | CC(=O)Nc1cccc(Oc2nsnc(Cl)c2=O)c1 [Compound 42, 3-[(3-N--acetylamino)-phenoxy]-5-chloro-4H--1,2,6-thiadiazin-4-one] | 24% | 33% | 52% | 90% | 
19 | O=c1c(Cl)nsnc1Oc1ccccc1Br [Compound 34, 3-chloro-5-(2-bromophenoxy)-4H-1,2,6,-thiadiazin-4-one] | 100% | 100% | 100% | 100% | 
20 | C[S+]([O-])c1ccc(Oc2nsnc(Cl)c2=O)cc1 (stereo not drawn) [Compound 40, 3-chloro-5-[(4-methylsulfinyl)phenoxy]-4H-1,2,6,-thiadiazin-4-one] | 54% | 75% | 92% | 100% | 

Row | Compound | inhibition at 5 ppm (5 ppm) | inhibition at 10 ppm (10 ppm) | inhibition at 20 ppm (20 ppm) | inhibition at 40 ppm (40 ppm) | further results
21 | O=c1c(Cl)nsnc1Oc1cccc(Cl)c1Cl [Compound 19, 3-chloro-5-(2,3-dichlorophenoxy)-4H--1,2,6-thiadiazin-4-one] | 62% | 62% | 90% | 100% | 
22 | Cc1ccc(Oc2nsnc(Cl)c2=O)cc1 [Compound 3, 3-chloro-5-(4-methylphenoxy)-4H--1,2,6-thiadiazin-4-one] | 19% | 63% | 100% | 100% | 
23 | O=c1c(Cl)nsnc1Oc1cccc(C(F)(F)F)c1 [Compound 44, 3-chloro-5-[(3-trifluoromethyl)phenoxy]-4H--1,2,6-thiadiazin-4-one] | 52% | 62% | 100% | 100% | 
24 | CC(=O)c1ccc(Oc2nsnc(Cl)c2=O)cc1 [Compound 47, 3-(4-acetylphenoxy)-5-chloro-4H--1,2,6-thiadiazin-4-one] | 92% | 92% | 92% | 88% | 
25 | CCOC(=O)c1ccc(Oc2nsnc(Cl)c2=O)cc1 [Compound 7, 3-chloro-5-(4-ethoxycarbonylphenoxy)-4H--1,2,6-thiadiazin-4-one] | 54% | 75% | 75% | 92% | 
26 | CC(=O)Nc1ccccc1Oc1nsnc(Cl)c1=O [Compound 43, 3-[(2-acetylamino)-phenoxy]-5-chloro-4H--1,2,6-thiadiazin-4-one] | 80% | 100% | 100% | 100% | 
27 | O=c1c(Cl)nsnc1Oc1c(Cl)cccc1Cl [Compound 18, 3-chloro-5-(2,6-dichlorophenoxy)-4H--1,2,6-thiadiazin-4-one] | 69% | 90% | 90% | 84% | 
28 | Cc1ccc(Oc2nsnc(Cl)c2=O)c(C)c1 [Compound 23, 3-chloro-5-(2,4-dimethylphenoxy)-4H--1,2,6-thiadiazin-4-one] | 63% | 81% | 100% | 100% | 
29 | CC(C)(C)c1ccc(Oc2nsnc(Cl)c2=O)cc1 [Compound 4, 3-chloro-5-(4-tert-butylphnoxy)-4H--1,2,6-thiadiazin-4-one] | 13% | 13% | 0% | 17% | 
30 | N#Cc1ccc(Oc2nsnc(Cl)c2=O)cc1 [Compound 10, 3-chloro-5-(4-cyanophenoxy)-4H--1,2,6-thiadiazin-4-one] | 54% | 79% | 92% | 92% | 
31 | O=c1c(Cl)nsnc1Oc1ccc(Cl)c(Cl)c1 [Compound 16, 3-chloro-5-(3,4-dichlorophenoxy)-4H--1,2,6-thiadiazin-4-one] | 38% | 50% | 56% | 50% | 
32 | Cc1cc(Oc2nsnc(Cl)c2=O)cc(C)c1Cl [Compound 59, 3-chloro-5-[(4-chloro-3,5-dimethyl)phenoxy]-4H--1,2,6-thiadiazin-4-one] | 48% | 52% | 57% | 57% | 
33 | CC(=O)Nc1ccc(Oc2nsnc(Cl)c2=O)cc1 [Compound 8, 5-(4-acetylaminophenoxy)-3-chloro-4H--1,2,6-thiadiazin-4-one] | 38% | 41% | 69% | 86% | 
34 | CCCCOc1ccc(Oc2nsnc(Cl)c2=O)cc1 [Compound 6, 3-chloro-5-(4-n-butoxyphenoxy)-4H--1,2,6-thiadiazin-4-one] | 8% | 0% | 13% | 21% | 
35 | CNC(=O)Nc1ccc(Oc2nsnc(Cl)c2=O)cc1 [Compound 28, 3-chloro-5-[4-(3-methylureido)-phenoxy]-4H--1,2,6-thiadiazin-4-one] | 40% | 47% | 50% | 70% | 
36 | O=c1c(Cl)nsnc1Oc1ccc(Cl)cc1Cl [Compound 17, 3-chloro-5-(2,4-dichlorophenoxy)-4H--1,2,6-thiadiazin-4-one] | 79% | 72% | 93% | 100% | 
37 | O=c1c(Cl)nsnc1Oc1c(Cl)cc(Cl)cc1Cl [Compound 30, 3-chloro-5-(2,4,6-trichlorophenoxy)-4H--1,2,6-thiadiazin-4-one] | 29% | 67% | 81% | 90% | 
38 | CS(=O)(=O)c1ccc(Oc2nsnc(Cl)c2=O)cc1 [Compound 41, 3-chloro-5-[(4-methylsulfonyl)phenoxy]-4H--1,2,6-thiadiazin-4-one] | 54% | 58% | 58% | 100% | 
39 | COc1ccc(Oc2nsnc(Cl)c2=O)cc1 [Compound 5, 3-chloro-5-(4-methoxyphenoxy)4H--1,2,6-thiadiazin-4-one] | 100% | 100% | 100% | 100% | 
